Reference: patent US8840939B2, “Vigna unguiculata seed extract and compositions containing same” (Laboratoires Expanscience, priority 2009, dated 2014)

Legend:
IL8 = test: Release of IL8 by PMA-stimulated keratinocytes (ELISA); assay type: cell-based, Human; conditions: 10^−7 M dexamethasone, NCTC2544 keratinocytes, 0.1 μg/ml PMA 24 hours
Method: (§1) The anti-inflammatory effect of Vigna hydrolysate was evaluated by measuring the cytokines (IL1α, IL8) produced by keratinocytes in response to stimulation by PMA.
(§2) Human keratinocytes (NCTC2544 cell line) were preincubated for 24 hours with 0.05% (w/v) Vigna hydrolysate or the reference molecule (10^−7 M dexamethasone). The cells were then treated with 0.1 μg/ml PMA, always in the presence of Vigna hydrolysate or dexamethasone, for 24 hours. The quantities of IL1α and IL8 released in the culture medium were evaluated by ELISA.
(§3) The results were analyzed statistically by one-way analysis of variance (ANOVA) followed by Tukey's test:
(§4) The percentage of inhibition in relation to the stimulated control (PMA) was calculated.

IL1α = test: Release of IL1α by PMA-stimulated keratinocytes (ELISA); assay type: cell-based, Human; conditions: 10^−7 M dexamethasone, NCTC2544 keratinocytes, 0.1 μg/ml PMA 24 hours
Method: as §1, §2, §3, §4

elastin = test: Gene expression of elastin by fibroblasts (RT-PCR); assay type: cell-based; conditions: 5 ng/ml TGFβ1, normal human fibroblasts, 24 hours
Method: (§5) The effect of Vigna hydrolysate on the modulation of the extracellular matrix of the dermis was evaluated on a dermal fibroblast model wherein the gene expression of elastin and MMP1 was studied.
(§6) Normal human fibroblasts were treated for 24 hours with 0.01% and 0.05% (w/v) Vigna hydrolysate or with 5 ng/ml TGFβ1 (reference). The gene expression of elastin and MMP1 was analyzed by quantitative real-time RT-PCR.
(§7) The results were analyzed statistically by one-way analysis of variance (ANOVA) followed by Dunnett's test:
(§8) The level of gene expression was expressed in relative quantity (RQ) and the effect of the treatment in relation to the control cells in percentage of increase or inhibition.

MMP1 = test: Gene expression of MMP1 by fibroblasts (RT-PCR); assay type: cell-based; conditions: 5 ng/ml TGFβ1, normal human fibroblasts, 24 hours
Method: as §5, §6, §7, §8

Row | Molecule | IL8 (IL8) | inhibition at 0.1 µM (IL8; Homo sapiens, NCTC-2544, read-out: IL8, percentage of inhibition in relation to the stimulated control (PMA) (converted)) | IL1α (IL1α) | inhibition at 0.1 µM (IL1α; Homo sapiens, NCTC-2544, read-out: IL1α, percentage of inhibition in relation to the stimulated control (PMA) (converted)) | ELASTIN gene expression, percentage of increase in relation to the control cells (elastin) | ELASTIN gene expression, relative quantity (RQ) (elastin) | MMP1 gene expression, percentage of inhibition in relation to the control cells (MMP1) | MMP1 gene expression, relative quantity (RQ) (MMP1)
1 | C[C@@H]1C[C@H]2[C@@H]3CCC4=CC(=O)C=C[C@]4(C)[C@@]3(F)[C@@H](O)C[C@]2(C)[C@@]1(O)C(=O)CO [dexamethasone] | 6.0 ± 0.2 ng/mL | 81% | 14.0 ± 3.5 pg/mL | 82% | – | – | – | –
2 | TGFβ1: 5 ng/ml TGFβ1 (reference) | – | – | – | – | +559% | 6.59 | −88% | 0.12
